The values that follow come from PubChem BioAssay AID1996.

≈ marks a conversion by molar mass, not a printed value. Bounds are passed on as bounds.

The conditions of the data set: buffer; pH 7.4; 200.0 µM.
`CN(Cc1ccccc1)C(=O)c1ccc(COc2ccccc2)cc1`: the solubility (kinetic) was determined as 4.5 µg/mL (≈ 13.6 µM).
`Cc1cc(=O)[nH]c(Nc2cccc(Br)c2)n1` showed a kinetic solubility greater than 42 µg/mL.
For `Cc1ccc(C(=O)O/N=C/c2ccc(N(C)C)cc2)cc1`, the solubility (kinetic) was found to be 2.4 µg/mL (≈ 8.5 µM).
Turning to `CC1CCCCC1NC(=O)COC(=O)c1ccc2ccccc2n1` (stereo not drawn), the kinetic solubility was determined as 7.1 µg/mL (≈ 21.8 µM).
`N#Cc1ccccc1NC(=O)CN1CCN(c2ccccn2)CC1`: the solubility (kinetic) is greater than 48.2 µg/mL.
Regarding `O=C(CCCc1ccccc1)NCCc1ccc(F)cc1`, the solubility (kinetic) was determined as 39.6 µg/mL (≈ 139 µM).
Regarding `O=C(Cc1ccccc1)NCc1ccncc1`, the kinetic solubility was found to be 28.2 µg/mL (≈ 125 µM).
Next, `CN(C)/C(=N\S(=O)(=O)c1ccc(F)cc1)c1ccccc1`: greater than 46 µg/mL; `COc1ccc(OCC(O)CNC(=O)Nc2cc(F)ccc2C)cc1` (stereo not drawn): 17.2 µg/mL (≈ 49.4 µM); `COc1cc2nc(N3CCN(C(=O)c4ccco4)CC3)nc(N)c2cc1OC.Cl`: 61.9 µg/mL.
As to `Cc1ccc(Nc2nc(-c3ccccc3)c(CC(=O)O)s2)cc1`, the kinetic solubility was greater than 48.7 µg/mL.
Next, `COc1ccc2nc(SCCC(=O)O)cc(C)c2c1`: greater than 41.6 µg/mL.
`COC(=O)Cn1c(N2CCCC2)nc2c1c(=O)n(C)c(=O)n2C` registered a solubility (kinetic) greater than 48.2 µg/mL.
`CN(Cc1ccccc1)S(=O)(=O)c1cc2c3c(c1)CCN3C(=O)CC2` displayed a solubility (kinetic) of 3.6 µg/mL (≈ 10.1 µM).
Next, `CCc1cccc(CC)c1-n1c(SCC(=O)N2CCCc3ccccc32)nc(O)cc1=O`: greater than 67.4 µg/mL; `COc1cccc(NC(=O)NCc2ccccc2Cl)c1`: 1 µg/mL (≈ 3.44 µM).
Next, `CC1CCCN(C(=O)NC(=O)c2ccc(Cl)cc2)C1` (stereo not drawn): 41.8 µg/mL (≈ 149 µM).
As to `O=C(O)C1CCCNC1` (stereo not drawn), the solubility (kinetic) was 0.4 µg/mL (≈ 3.1 µM).
In the case of `C=CCn1c(O)c(C(C)=NCCCN(C)C)c(=O)[nH]c1=O` it was greater than 44.2 µg/mL.
Next, `COc1ccccc1OCCNC(=O)C(=O)c1c[nH]c2ccccc12`: 37.2 µg/mL (≈ 110 µM); `Cc1ccccc1-c1nnc(SCC(=O)N(C)C2CCS(=O)(=O)C2)n1C` (stereo not drawn): greater than 59.2 µg/mL.
Next, `O=[N+]([O-])c1ccc(N2CCN(c3ccccc3Cl)CC2)cn1`: 2 µg/mL (≈ 6.27 µM); `CCOC(=O)Cc1csc(NC(=O)CSc2nc(C)cc(C)n2)n1`: greater than 55 µg/mL.
As for `COc1ccccc1NS(=O)(=O)c1cccc(NC(=O)c2cncc(Br)c2)c1`, the solubility (kinetic) is 6.4 µg/mL (≈ 13.8 µM).
In the case of `Cc1cc(C)c2nc(Cl)c(Cl)nc2c1` it was 2.7 µg/mL (≈ 11.9 µM).
Next, `Cc1ccc(C(=O)Nc2ccncc2)c(C)c1`: greater than 33.9 µg/mL.
The compound `NC(=O)CSc1nc(C23CC4CC(CC(C4)C2)C3)nc2ccccc12` yielded a solubility (kinetic) of 1.2 µg/mL (≈ 3.39 µM).
In the case of `Cc1[nH]ccc(=O)c1Cc1c(Cl)cccc1Cl` it was greater than 40.2 µg/mL.
The compound `CCOC(=O)CSc1nc(C)c2cc(C)c(C)cc2n1` had a kinetic solubility of 6 µg/mL (≈ 20.7 µM).
In the case of `Cc1cccc(CCNCc2cc3cc(C)cc(C)c3[nH]c2=O)c1` it was 42.5 µg/mL (≈ 133 µM); in that of `Cc1ccccc1C(=O)NCCCNC(=O)c1ccco1`, 42.9 µg/mL (≈ 150 µM).
Consider `c1ccc(CNc2nc(-c3ccccc3)nc3ccccc23)cc1`, for which the kinetic solubility was 1.2 µg/mL (≈ 3.85 µM).
The compound `C=CCn1c(O)c(Cc2ccc(OCC)cc2)c(=O)[nH]c1=O` gave a kinetic solubility of 43.7 µg/mL (≈ 145 µM).
`O=C1CCN(S(=O)(=O)c2ccc(Cl)cc2)CC1` displayed a kinetic solubility greater than 41.1 µg/mL.
With `CN1CCCC(OC(=O)c2cccc(Br)c2)C1.Cl` (stereo not drawn), the solubility (kinetic) is greater than 50.2 µg/mL.
`Cc1ccc2nc(-c3ccc(Br)cc3)cn2c1` had a kinetic solubility of less than 0.3 µg/mL.
`O=C(NC1CC1)c1ccc(-n2cccc2)cc1` had a solubility (kinetic) of 17.4 µg/mL (≈ 76.9 µM).
For the compound `O=C(NCc1ccccc1)c1ccc(F)c(F)c1`, the kinetic solubility was 35.5 µg/mL (≈ 144 µM).
With `Br.CC1=C(c2ccccc2)SC2=NCCN21`, the kinetic solubility is greater than 44.6 µg/mL.
As to `Cc1cccnc1NC(=O)CCNC(=O)c1ccc(Br)cc1`, the solubility (kinetic) is greater than 54.3 µg/mL.
Compound `O=C(CCNC(=O)c1ccccc1)NCc1ccccc1F` gave a kinetic solubility greater than 45 µg/mL.
`COc1cc2nc(NC(=O)c3ccc(Cl)cc3)sc(=O)c2cc1OC` registered a kinetic solubility of 3.7 µg/mL (≈ 9.82 µM).
`Cc1cc(NC(=O)C(C)SCC(=O)N(C)Cc2c(F)cccc2Cl)no1` (stereo not drawn) registered a solubility (kinetic) greater than 60 µg/mL.
For the compound `COc1ccc(OC(C)C(=O)NCC2CCCO2)cc1` (stereo not drawn), the solubility (kinetic) is greater than 41.9 µg/mL.
Next, `O=C(CSc1nnc(C2CC2)n1C1CC1)c1cccs1`: greater than 45.8 µg/mL.
For the compound `COc1ccc(C(=O)OCC(=O)c2ccc3c(c2)NC(=O)CO3)cc1OC`, the solubility (kinetic) amounted to 10.8 µg/mL (≈ 29.1 µM).
As for `CCN(CC)S(=O)(=O)c1cc(NC(=O)CSCc2c(C)noc2C)ccc1C`, the kinetic solubility was greater than 63.8 µg/mL.
`CC(C)(CNS(=O)(=O)c1ccc(Br)s1)N1CCOCC1` had a solubility (kinetic) greater than 57.5 µg/mL.
As for `Cc1ccccc1C(=O)O/N=C(\N)c1ccccc1`, the kinetic solubility is 34.3 µg/mL (≈ 135 µM).
In the case of `CCC1(CC)C(=O)N(C)C(=O)NC1=NC` it was greater than 31.7 µg/mL; in that of `Cn1c(/C=N/O)nc2ccccc21`, greater than 26.3 µg/mL.
With `COc1ccc2nc(SCC(=O)NCC3CCCO3)c(C#N)cc2c1` (stereo not drawn), the solubility (kinetic) amounted to 5.2 µg/mL (≈ 14.5 µM).
In turn, `COc1ccc(Nc2oc(-c3ccccc3)nc2C#N)cc1` gave a kinetic solubility of 0.5 µg/mL (≈ 1.72 µM).
